We go through 20 molecules from patent publication US12649749B2, “Preparation and application of tricyclic pyrimidinone compound and its composition” (NEUSCO BIOTECH LIMITED, priority 2020, dated 2026).

For experiment [1], the target named is T1, Lp-PLA2 enzyme in human plasma (Homo sapiens, UniProt Q13093).
T1 construct: from tissue; host or cells: pooled (mixed) human plasma
T1 sequence (Q13093 22-441): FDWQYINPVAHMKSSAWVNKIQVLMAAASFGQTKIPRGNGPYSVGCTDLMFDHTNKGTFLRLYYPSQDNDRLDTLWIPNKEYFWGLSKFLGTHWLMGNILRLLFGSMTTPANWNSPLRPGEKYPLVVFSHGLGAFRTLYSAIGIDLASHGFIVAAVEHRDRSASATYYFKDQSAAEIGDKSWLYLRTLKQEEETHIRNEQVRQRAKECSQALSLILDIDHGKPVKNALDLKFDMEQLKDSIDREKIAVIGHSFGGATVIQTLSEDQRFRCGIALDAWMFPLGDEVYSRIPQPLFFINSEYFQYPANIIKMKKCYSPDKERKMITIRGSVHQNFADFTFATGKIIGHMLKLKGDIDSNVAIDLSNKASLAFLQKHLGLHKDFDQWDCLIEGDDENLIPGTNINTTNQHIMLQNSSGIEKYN
Put plainly: Human plasma Lp-PLA2 assay (Thio-PAF assay). The class given is biochemical. The note with it: mixed human plasma; 2-thio-PAF substrate with CPM; 30 min pre-incubation; fluorescence ex 380/em 485; read-out: Thio-PAF (pIC50) (converted). The method, then:
(2) Human Plasma Lp-PLA2 Assay (Also Known as Thio-PAF Assay) The human plasma assay was conducted using the sulphatide analog of PAF (phosphatidylcholine), which is hydrolyzed to produce phospholipids containing free sulfhydryl groups, subjected to Michael addition with CPM to generate fluorescence-enhancing maleimide. Continuous quantitative analysis of thiol could be conducted by detecting the fluorescence intensity. This assay can be used to detect the inhibitory activity of the Lp-PLA2 inhibitor on the Lp-PLA2 enzyme in human plasma. Assay Method: The compound to be tested (as shown in Table 2) was mixed with a DMSO solution in a volume ratio of (1:3), and diluted to prepare a source plate of a 384-well microplate. Then 0.01 μl of the compound was transferred via an ECHO liquid dispenser from the source plate to a 384-well Greiner 784076 low-volume plate, and 8 μl of pre-aliquoted and frozen mixed human plasma was added. The plate was centrifuged at 500 rpm for 10 seconds. After a 30 min pre-incubation, 2 μl of a substrate solution, and containing 2.5 mM 2-thio-PAF (a solution in ethanol), 32 μM CPM (a solution in DMSO) and a buffer of 3.2 mM N-ethylmaleimide (NEM) (a buffer solution consisting of 50 mM HEPES, pH 7.4, 150 mM NaCl, 1 mM CHAPS) was added by a BRAVO liquid handling station to a 384-well Greiner 784076 low-volume plate. After 2 min, the reaction was quenched with 5 μl of 5% trifluoroacetic acid. After the plate was incubated at room temperature for 40 min in a dark place, the fluorescence intensity was read at ex 380/em 485 with an Envision microplate reader, and the XL fitting model in Excel was used to perform the curve analysis and QC analysis to calculate pIC50.

The target in experiment [2] is T2, Recombinant human Lp-PLA2 enzyme (Homo sapiens, UniProt Q13093).
T2 sequence (Q13093 22-441): T1 sequence (Q13093 22-441)
Put plainly: Recombinant human Lp-PLA2 (rhLp-PLA2) assay (PED6 assay). In kind it is biochemical. To be noted: PED6 substrate; recombinant human Lp-PLA2 at 4 nM or 110 pM; 30 min pre-incubation; fluorescence ex 480/em 540; read-out: rhLp-PLA2 (pIC50) (converted). An excerpt: (1) Recombinant Human Lp-PLA2 (rhLp-PLA2) Assay (also Known as PED6 Assay)
PED6 is a fluorescently labeled phospholipid that can be purchased directly from Invitogene or Molecular Probes. There is a fluorescence-quenching p-nitrophenyl group on the Sn3 position, and a Bodipy fluorescein (FL) group on the sn2 position. Once it is cleaved by the Lp-PLA2 enzyme, the FL group is released, resulting in enhanced fluorescence.
Assay method: The compound to be tested (as shown in Table 1) was mixed with DMSO solution at a volume ratio of 1:3, diluted to prepare a source plate of a 384-well microplate. Then 0.01 μl of the compound was transferred via an ECHO liquid dispenser from the source plate to a 384-well Greiner 784076 plate, and 5 microliters of a buffer composed of 50 mM HEPES, pH 7.4, 150 mM NaCl, 1 mM CHAPS (the buffer solution contains Recombinant human Lp-PLA2 enzyme at a concentration of 4 nM or 110 pM) was added to each well on the plate. The plate was centrifuged at 500 rpm for 10 seconds. After 30 minutes of pre-incubation, 5 microliters of the above buffer solution was added to a 384-well Greiner784076 plate, and the plate was centrifuged at 500 rpm for 10 seconds.

With `Cc1ccc(Oc2c(F)cc(COc3cc4n(c(=O)n3)CC[C@H]3COCCN43)cc2F)cn1` [Compound 18], the IC50 in experiment [1] was 10 nM; in experiment [2], 0.1 nM.
As to `Cc1ccc(Oc2c(F)cc(COc3cc4n(c(=O)n3)CC[C@@H]3COCCN43)cc2F)cn1` [Compound 7], the IC50 in experiment [1] is 7.94 nM; in experiment [2] it was 0.0631 nM.
The corresponding values for `O=c1nc(OCc2cc(F)c(F)c(F)c2)cc2n1CC[C@H]1COCCN21` [Compound 13] are 79.4 nM and 6.31 nM.
For `O=c1nc(OCc2cc(F)c(F)c(F)c2)cc2n1CC[C@@H]1COCCN21` [Compound 1], in that order: 63.1 nM and 3.98 nM.
For `O=c1nc(OCc2cc(F)c(Oc3cccc(C(F)(F)F)c3)c(F)c2)cc2n1CC[C@H]1COCCN21` [Compound 19], in that order: 7.94 nM and 0.0794 nM.
Take `O=c1nc(OCc2cccc(F)c2F)cc2n1CC[C@@H]1COCCN21` [Compound 2]: the values for the IC50 in experiment [1] and in experiment [2] were 251 nM and 25.1 nM, respectively.
For `O=c1nc(OCc2cc(F)c(Oc3ccc(C(F)(F)F)nc3)c(F)c2)cc2n1CC[C@H]1COCCN21` [Compound 17], in that order: 12.6 nM and 0.126 nM.
Regarding `O=c1nc(OCc2cc(F)c(Oc3ccc(C(F)(F)F)c(Cl)c3)c(F)c2)cc2n1CC[C@@H]1COCCN21` [Compound 12], the IC50 was 6.31 nM in experiment [1] and 0.0501 nM in experiment [2].
The corresponding values for `O=c1nc(OCc2cc(F)c(Oc3cccc(C(F)(F)F)c3)c(F)c2)cc2n1CC[C@@H]1COCCN21` [Compound 9] are 6.31 nM and 0.0631 nM.
For `Cc1ncc(Oc2c(F)cc(COc3cc4n(c(=O)n3)CC[C@@H]3COCCN43)cc2F)cn1` [Compound 8], in that order: 15.8 nM and 0.316 nM.
The corresponding values for `O=c1nc(OCc2cc(F)c(Oc3ccnc(C(F)(F)F)c3)c(F)c2)cc2n1CC[C@H]1COCCN21` [Compound 15] are 12.6 nM and 0.126 nM.
Turning to `O=c1nc(OCc2cc(F)c(Oc3ccnc(C(F)(F)F)c3)c(F)c2)cc2n1CC[C@@H]1COCCN21` [Compound 4], the IC50 in experiment [1] was 6.31 nM; in experiment [2] it was 0.0794 nM.
For `Cc1cc(Oc2c(F)cc(COc3cc4n(c(=O)n3)CC[C@@H]3COCCN43)cc2F)ccn1` [Compound 5], in that order: 3.16 nM and 0.0631 nM.
The corresponding values for `O=c1nc(OCc2cc(F)c(Oc3ccc(C(F)(F)F)cc3)c(F)c2)cc2n1CC[C@H]1COCCN21` [Compound 20] are 12.6 nM and 0.1 nM.
For `Cc1cc(Oc2c(F)cc(COc3cc4n(c(=O)n3)CC[C@H]3COCCN43)cc2F)ccn1` [Compound 16], in that order: 7.94 nM and 0.0794 nM.
Consider `O=c1nc(OCc2cc(F)c(Oc3cccc(OC(F)(F)F)c3)c(F)c2)cc2n1CC[C@@H]1COCCN21` [Compound 10], for which the IC50 in experiment [1] is 10 nM; in experiment [2], 0.0794 nM.
For `O=c1nc(OCc2cccc(F)c2F)cc2n1CC[C@H]1COCCN21` [Compound 14], in that order: 316 nM and 31.6 nM.
For `O=c1nc(OCc2cc(F)c(Oc3ccc(C(F)(F)F)cc3)c(F)c2)cc2n1CC[C@@H]1COCCN21` [Compound 11], in that order: 7.94 nM and 0.0794 nM.
For `O=c1nc(OCc2cc(F)c(F)cc2F)cc2n1CC[C@@H]1COCCN21` [Compound 3], in that order: 316 nM and 31.6 nM.
For `O=c1nc(OCc2cc(F)c(Oc3ccc(C(F)(F)F)nc3)c(F)c2)cc2n1CC[C@@H]1COCCN21` [Compound 6], the results for the IC50 in experiment [1] and in experiment [2] were 7.94 nM and 0.1 nM, respectively.
